Patent publication US20040038904A1, “Method of treating multiple sclerosis” (priority 2002, published 2004)

Tested on: progressive multiple sclerosis
Experiment: Monitoring of progress of treatment (clinical condition) in patient with progressive multiple sclerosis
Type: in vivo, human
Settings: epirubicin 75-100 mg iv with dexrazoxane, 12-week cycle, first and second treatment cycles
Text: Anthracyclines of the present invention can be administered in cycles over 7-week to 15-week intervals. Generally, treatment with anthracyclines is started with a 12-week cycle and the patient is monitored for progress of the treatment during the course of treatment. If the condition of the patient deteriorates between week 8 and 12 of the cycle, the treatment cycle should be shortened to, for example, 9 weeks or shorter.
A patient is diagnosed with progressive multiple sclerosis. Anthracycline therapy with epirubicin 75 mg by intravenous injection is initiated on a 12-week cycle. Prior to the administration of the anthracycline, the patient is pretreated with dexrazoxane at 750 mg by intravenous injection. The patient is monitored for progress of treatment and hematologic and non-hematologic toxicity throughout the course of treatment.

Structure (SMILES): COc1cccc2c1C(=O)c1c(O)c3c(c(O)c1C2=O)C[C@@](O)(C(=O)CO)C[C@@H]3O[C@H]1C[C@H](N)[C@@H](O)[C@H](C)O1 [epirubicin]
- patient's clinical condition during treatment cycle: deteriorates between weeks 9 and 12
